Test results taken from US20090232917A1, “COMPOSITION FOR RELIEVING SUBJECTIVE SYMPTOMS OF FATIGUE” (Kyowa Hakko Kogyo Co., Ltd., priority 2005, published 2009).

Tested on: normal subjects (subjective symptoms of fatigue)
Experiment: Test Example 1: subjective symptoms of fatigue by visual analogue scale (VAS) method, tablets for 3 weeks
Format: in vivo, human
Details: 6 tablets of Example 1 per day for 3 weeks
Method: A test was carried out as follows. […] Evaluation was carried out in terms of the subjective symptoms of fatigue in the test subjects at the start and completion of the test using a visual analogue scale (VAS) method.
Specifically, each end of the segment has a criterion of expression. Referring to FIG. 1 or 2, each subject was allowed to mark somewhere in the segment, corresponding to each term of the questionnaires. Among the subjective symptoms of fatigue, questionnaires 1 to 8 represent indices related to “drowsiness and dullness”, and questionnaires 9 to 15 represent indices related to “difficulty in concentration”.
The distance (mm) from the left end of the segment to the marked point was measured and the difference between before and after the test was calculated. The difference by the value before the test was shown in the percentage calculated; and the average value and standard deviation for each group were calculated. […] Further, it was confirmed that there was no difference between two groups at the start of the test.
Further, the test was carried out under a random assignment and the comparison between the double blind parallel groups was carried out.

Cl.NCCC[C@H](N)C(=O)O [ornithine, ornithine hydrochloride]
relieving effect on subjective symptoms of fatigue, all terms (drowsiness and dullness; difficulty in concentration) (VAS questionnaires 1 to 15, versus placebo group, FIG. 3 and 4): relieving effect | "having difficulty thinking": difference between the placebo group and the ornithine group (VAS, unpaired t-test): significant difference
